Source: patent US20260240817A1, “COMPOSITIONS AND METHODS FOR TREATING CHARCOT-MARIE-TOOTH DISEASE” (priority 2023, published 2026)
“Also recorded” adds a separate entry of the source.

Key:
MG patients = assay: Phase 1 FIH study, single doses in MG patients; type: in vivo, human
Procedure: (§1) NMD670 has been tested in a Phase 1, FIH, single ascending and multiple ascending dose study in healthy volunteers. […] In addition, the Phase 1 FIH study also tested single doses of 400 mg and 1200 mg in 12 MG patients.

mouse model of CMT1A = assay: In vivo hind leg force (torque) on sciatic nerve stimulation in mouse model of CMT1A
Procedure: Male and female mice (Jacson Laboratory Strain #:030052) approx. 6-7 months of age at time of study start were used. These genetically modified mice are used as a disease model to study Charcot Marie Tooth (CMT) disease type 1A (CMT1A).
The sodium salt of NMD670 was dissolved in phosphate buffered saline (PBS) to a dose volume of 1 mg/mL. The entire amount of dose-solution was then transferred to a vial labelled A or B (for blinding purposes). The vehicle control solution was PBS and this was transferred to a vial labelled A or B (for blinding purposes). Compound was dosed IP at a volume of 10 mL/kg, from a 1 mg/mL dose solution.
(§2) Animal was sedated (isoflurane inhalation 2% in ambient air) and prepared for assessment of force production from the hind leg, via electrical stimulation of the sciatic nerve in a static position. Stimulation electrodes were inserted at the sciatic nerve, and test pulses of low current amplitude were used to adjust position of all electrodes until a stable reproducible signal was achieved twice. The force resulting from supramaximal electrical stimulation of the supplying motor nerve was recorded from a foot-pad moved by the foot/paw of the animal. See table Table 21 for detailed stimulation protocol.
NMD670 or vehicle was administered by IP injection at a volume of 10 mL/kg from a 1 mg/mL dose solution while sedated in the EMG measurement set up. 10 to 15 minutes was allowed to elapse before next step was initiated.
as §2, with “The animal remained” for “Animal was”, “sedated” for “sedated (isoflurane inhalation 2% in ambient air)”, “See” for “See table”
Each mouse was tested prior to intervention with test article, and then tested after IP injection of 10 mg/kg NMD670 or vehicle (PBS). A washout period was then allowed (48 hours), and the mouse was subjected to the same test, but receiving the opposite treatment to that on the first day. All mice thus received both vehicle and NMD670, in a randomized order (FIG. 6).

healthy volunteers = assay: Phase I (FIH) clinical trial, safety and tolerability in healthy volunteers; type: in vivo, human
Excerpt: Part A1 tested single doses of NMD670 in a double-blind, randomised, placebo-controlled, partial crossover and dose-escalating design in healthy male subjects (see the WHO International Clinicals Trials Registry Platform study reference NL8692). A total of nine dose levels were investigated in three cohorts of subjects. Each cohort consisted of nine subjects, each subject had three study sessions. Each subject received escalating doses of NMD670 on two occasions and placebo on one occasion, the order will be randomized in a cross-over fashion. Each dose level was randomized in a 6:3 ratio (active vs. placebo). See Table 10 for an overview of the randomization scheme.
Due to this temporary halt and partial unblinding of the study during dose level 7, a new randomization was necessary. After unblinding three subjects in dose level 7, the original randomization for dose 8 and 9 was changed in order to keep the study blinded. […] Therefore, for the remaining 2 doses, a full cross-over design investigating one previously tested dose level was used. The 9 subjects in cohort 3 were randomized to receive the study drug in level 8 and placebo in level 9, or vice versa. To determine the effect of food on the exposure of single oral doses of NMD670, dose level 5 was administered in both the fasted and fed condition. Subjects who received dose level 5 returned for a fourth visit in which they received dose level 5 (or matching placebo) in the fed condition, in the same randomization as the chosen dose level in the fasted condition.
Part A2 of the study investigated the safety, tolerability and pharmacokinetics of NMD670 in 8 healthy female subjects of non-childbearing potential, in a randomized, double-blind, placebo-controlled single dose administration of NMD670. Subjects received 800 mg NMD670. Subjects were randomized in a 6:2 ratio (active vs. placebo).
The following endpoints were determined at time points indicated in the Schedule of Assessments. • Serious adverse events (SAEs) and adverse events (AEs) were collected throughout the study at every study visit. • Concomitant medication • Clinical laboratory tests • Haematology • Chemistry • Urinalysis • Coagulation • Vital signs • Pulse Rate (bpm) • Systolic blood pressure (mmHg) • Diastolic blood pressure (mmHg) • Respiratory rate • ECG • Heart Rate (HR) (bpm), PR, QRS, QT, QTcF • 24-hour Holter recording • Hand grip dynamometry • Grip release profile; time profile from 100% maximum voluntary contraction (MVC) to 5% of the 100% MVC
as §1

[1] = system: soleus muscle fibres from CMT2D mice; type: cell-based, mouse; settings: 10 μM NMD670 added to CMT2D fibres, μ-Conotoxin-treated; vs before addition; 12, 30, 80 Hz trains
[2] = system: soleus muscle fibres from CMT2D mice; assay: Intracellular recordings of action potentials during repeated motor nerve stimulation, isolated soleus nerve-muscle preparations; type: cell-based, mouse

## C[C@H](Oc1ccc(Br)cc1-c1ccon1)C(=O)O [NMD670, (2S)-2-[4-bromo-2-(1,2-oxazol-3-yl)phenoxy]propanoic acid]
MG patients; patients with MG, single doses of 400 mg and 1200 mg
  myotonia: not observed
MG patients; single dose of 400 mg
  symptoms of MG: statistically significant and clinically relevant improvements of symptoms
Mouse model of CMT1A; 10 mg/kg IP, compared to Vehicle
  ability to sustain force during stimulated contraction: markedly improved
Mouse model of CMT1A; 10 mg/kg intra peritoneally, compared to vehicle treatment
  stimulated force: significantly increase
Mouse model of CMT1A; 1 Hz, 10 mg/kg IP, vehicle −0.37
  Change in Torque (peak stimulated force, before to after treatment): 0.95 mN*m
Mouse model of CMT1A; 15 Hz, 10 mg/kg IP, vehicle −0.46
  Change in Torque (peak stimulated force, before to after treatment): 0.59 mN*m
Mouse model of CMT1A; 30 Hz, 10 mg/kg IP, vehicle −0.95
  Change in Torque (peak stimulated force, before to after treatment): 0.49 mN*m
Mouse model of CMT1A; 60 Hz, 10 mg/kg IP
  increase of peak muscle force: 1.13 mNm
Mouse model of CMT1A; 60 Hz, 10 mg/kg IP, vehicle −1.49
  Change in Torque (peak stimulated force, before to after treatment): 1.13 mN*m
Mouse model of CMT1A; 60 Hz, 10 mg/kg IP, vehicle −1.5
  Change in Fade (before to after treatment): 2.2%
Mouse model of CMT1A; 120 Hz, 10 mg/kg IP
  increase of peak muscle force: 1.67 mNm
Mouse model of CMT1A; 120 Hz, 10 mg/kg IP, vehicle −1.36
  Change in Torque (peak stimulated force, before to after treatment): 1.67 mN*m
Mouse model of CMT1A; 120 Hz, 10 mg/kg IP, vehicle −14.1
  Change in Fade (before to after treatment): 8.1%
Mouse model of CMT1A; 200 Hz, 10 mg/kg IP
  improvement of ability to sustain force: 18.3 % point
Mouse model of CMT1A; 200 Hz, 10 mg/kg IP, vehicle −1.42
  Change in Torque (peak stimulated force, before to after treatment): 1.90 mN*m
Mouse model of CMT1A; 200 Hz, 10 mg/kg IP, vehicle −24.1
  Change in Fade (before to after treatment): 18.3%
Healthy volunteers; 400 mg BID, healthy volunteers
  tolerability of maximum repeated dose: well tolerated
Healthy volunteers; 1200 mg once a day, mild in intensity, resolved spontaneously within a few hours
  healthy subjects with myotonic symptoms: 2
Healthy volunteers; 1600 mg single dose, one healthy subject, spontaneously and fully resolved within hours
  adverse event of myotonia, intensity: moderate in intensity; also recorded: moderate severity
Healthy volunteers; Phase 1, healthy subjects, single doses 50 to 1600 mg
  serious or severe adverse effects: No serious or severe adverse effects; also recorded: No serious adverse reactions
Healthy volunteers; Phase 1 FIH study, TEAE incidence similar between NMD670 and placebo
  overall safety and tolerability: safe and well tolerated
Healthy volunteers; Phase 1 Part A
  subject discontinuations: no subject discontinuations
Healthy volunteers; Phase 1 Part A, 35 subjects
  total AEs reported: 70
Healthy volunteers; Phase 1 Part A, of 70 AEs, number (%)
  AEs at least possibly drug related: 47 (67%)
Healthy volunteers; Phase 1 clinical study, not considered clinically significant
  serum uric acid: dose-dependent decrease
Healthy volunteers; single doses, 1200 mg and 1600 mg
  transient myotonia, relation to dose: reported at the highest dose levels tested
[1]
  EPP amplitude: significant increase; also recorded: small non-significant increase
[2]; 12 Hz, after 10 μM NMD670, 3/47 fibres (before 6/60, 10%)
  fibres unable to sustain action potential generation for the entire stimulus train: 6,4%
[2]; 12 Hz, after addition of 10 μM NMD670 (before 3.6)
  average action potential excitation failure: 1.9%
[2]; 30 Hz, after 10 μM NMD670, 3/47 fibres (before 9/60, 15%)
  fibres unable to sustain action potential generation for the entire stimulus train: 6.4%
[2]; 30 Hz, after addition of 10 μM NMD670 (before 4.9)
  average action potential excitation failure: 0.8%
[2]; 80 Hz, after 10 μM NMD670, 20/47 fibres (before 33/60, 55%)
  fibres unable to sustain action potential generation for the entire stimulus train: 42.5%
[2]; 80 Hz, after addition of 10 μM NMD670 (before 29.6)
  average action potential excitation failure: 20.4%
